Assay results from patent US4268630A, “Microbiological production of ketones from C3 -C6 alkanes” (priority 1979, dated 1981).

Key:
[1] = system: Methylobacter capsulatus Y (NRRL B-11,201); assay: Oxidation of n-alkanes to methyl ketones by resting cell suspension; format: cell-based; details: cell suspension grown on methane
Protocol: (§1) The pH of the nutrient medium was adjusted to 7.0 by the addition of acid or base and 50 ml. samples of the nutrient medium were charged into a plurality of 300 ml. shaker flasks. […] The isolates had been maintained on methanol (0.4% V/V) agar plates or on agar plates under an atmosphere of methane and air having a 1:1 V/V gas ratio which had been transferred every two weeks. For growth on methanol, the medium was supplemented with 0.4% methanol. For growth on methane, the gaseous phase of the inoculated flasks was replaced with a gas mixture comprised on methane and air having a ratio of 1:1 on a V/V basis. The inoculated flasks were sealed air-tight and were incubated on a rotary shaker of orbital radius 2.5 cm. at 250 rpm and at 30° C. for two days until turbidity in the medium had developed. The cells were harvested by centrifugation at 10,000×g. at 4° C. for 30 minutes. The cell pellet was washed twice with a 0.05 M phosphate buffer at a pH of 7.0 (containing 0.02 M MgCl2). The washed cells were then suspended in a 0.05 M phosphate buffer at pH 7.0.
(§2) A 0.5 ml. sample of each washed cell suspension (2 mg. cells) was put into 10 ml. vials at 4° C. which were sealed with a rubber cap. The gaseous phase of the vials was removed with vacuum and then was replaced with a gas mixture of the substrate reactant (i.e., alkane or secondary alcohol) and oxygen at a 1:1 V/V ratio. (In the case of a liquid substrate, i.e., secondary alcohol, 10 μl of the substrate was put in the 10 ml. vials). The vials were then incubated at 30° C. on a rotary shaker at 300 rpm. Samples of product (1-3 μl) were withdrawn periodically with a microsyringe and the products were analyzed by gas chromatography (ionization flame detector column).

[2] = system: Methylobacterium organophilum XX; assay: as above; format: cell-based; details: cell suspension grown on methane
Protocol: as §1, §2

[3] = system: Methylocystis parvus OBBP (NRRL B-11,198); assay: as above; format: cell-based; details: cell suspension grown on methane
Protocol: as §1, §2

[4] = system: Methylomonas albus BG8 (NRRL B-11,200); assay: as above; format: cell-based; details: cell suspension grown on methane
Protocol: as §1, §2

[5] = system: Methylomonas methanica SI (NRRL B-11,199); assay: as above; format: cell-based; details: cell suspension grown on methane
Protocol: as §1, §2

[6] = system: Methylosinus sporium 5 (NRRL B-11,197); assay: as above; format: cell-based; details: cell suspension grown on methane
Protocol: as §1, §2

[7] = system: Methylosinus trichosporium OB3b (NRRL B-11,196); assay: as above; format: cell-based; details: cell suspension grown on methane
Protocol: as §1, §2

[8] = system: Methylococcus capsulatus Texas (ATCC 19069); assay: as above; format: cell-based; details: cell suspension grown on methane
Protocol: The pH of the nutrient medium was adjusted to 7.0 by the addition of acid or base and 50 ml. samples of the nutrient medium were charged into a plurality of 300 ml. shaker flasks. The shaker flasks were inoculated with an inoculating loop of cells from an agar plate containing homogeneous colonies of the microorganisms on the plate (the purity of the isolates was confirmed by microscopic examination). The isolates had been maintained on methanol (0.4% V/V) agar plates or on agar plates under an atmosphere of methane and air having a 1:1 V/V gas ratio which had been transferred every two weeks. For growth on methanol, the medium was supplemented with 0.4% methanol. For growth on methane, the gaseous phase of the inoculated flasks was replaced with a gas mixture comprised on methane and air having a ratio of 1:1 on a V/V basis. The inoculated flasks were sealed air-tight and were incubated on a rotary shaker of orbital radius 2.5 cm. at 250 rpm and at 30° C. for two days until turbidity in the medium had developed. The cells were harvested by centrifugation at 10,000×g. at 4° C. for 30 minutes. The cell pellet was washed twice with a 0.05 M phosphate buffer at a pH of 7.0 (containing 0.02 M MgCl2). The washed cells were then suspended in a 0.05 M phosphate buffer at pH 7.0.
as §2, with “The vials were then incubated at 30° C. on a rotary shaker at 300 rpm.” left out

[9] = system: Methylobacter capsulatus (Y, NRRL-B-11,201); assay: Conversion of n-alkanes to secondary alcohols by cell suspensions; format: cell-based; details: growth substrate Methane
From the text: (§3) Both cell suspensions (particulate fraction) and cell-free particulate fraction of methane-grown methylotroph microorganisms are capable of catalyzing the conversion of C3 -C6 n-alkanes to the corresponding alcohols including secondary alcohols. The conditions for preparing the cell suspensions or the cell-free particulate fractions from methane-grown methylotroph microorganisms is the same as described above. The cell-free particulate fraction requires the presence of oxygen and NADH as an electron donor. […] Tables XVI and XVII show the conversion of C3 -C6 n-alkanes to the corresponding secondary alcohols using cell suspensions and cell-free particulate fractions, respectively, of methane-grown methylotroph microorganisms.

[10] = system: Methylobacterium sp. (CRL-26, NRRL-B-11,208); assay: as above; format: cell-based; details: growth substrate Methane
From the text: as §3

[11] = system: Methylococcus capsulatus (Texas, ATCC 19,069); assay: as above; format: cell-based; details: growth substrate Methane
From the text: as §3

[12] = system: Methylomonas sp. (CRL-17, NRRL-B-11,209); assay: as above; format: cell-based; details: growth substrate Methane
From the text: as §3

[13] = system: Methylosinus sp. (CRL-15, NRRL-B-11,202); assay: as above; format: cell-based; details: growth substrate Methane
From the text: as §3

[14] = system: Methylosinus trichosporium (OB3b, NRRL-B-11,196); assay: as above; format: cell-based; details: growth substrate Methane
From the text: as §3

[15] = system: particulate P(40) fraction of Methylobacterium sp. (CRL-26, NRRL-B-11,222); assay: Hydroxylation of n-alkanes to secondary alcohols by particulate P(40) fraction; format: biochemical
From the text: as §3
(§4) ^(a) Particulate P(40) fraction was prepared as follows:
(§5) Cellsuspensions at 4° C. were disintegrated through a French
(§6) Pressure cell and centrifuged at 4000 × g. for 15 min. to remove
(§7) unbroken bacteria. The supernatant solution was then centrifuged at 40,00
(§8) × g. for 30 min. at 4° C. yielding the particulate P(40) and
(§9) soluble S(40) fractions. The products were identified by gas
(§10) chromatography and cochromatography with authentic standard.

[16] = system: particulate P(40) fraction of Methylococcus capsulatus (Texas, ATCC 19,069); assay: as above; format: biochemical
From the text: as §3, §4, §5, §6, §7, §8, §9, §10

[17] = target: particulate P(40) fraction of Methylosinus sp. (CRL-15, NRRL-B-11,202) (Methylosinus trichosporium, UniProt Q50541+Q9KX50+Q9KX51); assay: as above; format: biochemical
From the text: as §3, §4, §5, §6, §7, §8, §9, §10

[18] = system: particulate P(40) fraction of Methylosinus trichosporium (OB3b, NRRL-B-11,196); assay: as above; format: biochemical
From the text: as §3, §4, §5, §6, §7, §8, §9, §10

[19] = system: Methylosinus trichosporium OB3b NRRL B-11,196; assay: Conversion of n-alkanes to oxidation products by cell suspensions; format: cell-based; details: methane-grown cell suspension, pH 7.0
Protocol: (§11) ^(a) Cell-suspensions of methanegrown methylotroph microorganisms
(§12) indicated in 0.15 M phosphate buffer, pH 7.0 incubated in the alkanes as
(§13) indicated at 3° C. The oxidation products were determined by g.l.c

[20] = system: Methylococcus capsulatus CRL M1 NRRL B-11,219; assay: as above; format: cell-based; details: methane-grown cell suspension, pH 7.0
Protocol: as §11, §12, §13

Sequence of particulate P(40) fraction of Methylosinus sp. (CRL-15, NRRL-B-11,202) (Q9KX50 40-431): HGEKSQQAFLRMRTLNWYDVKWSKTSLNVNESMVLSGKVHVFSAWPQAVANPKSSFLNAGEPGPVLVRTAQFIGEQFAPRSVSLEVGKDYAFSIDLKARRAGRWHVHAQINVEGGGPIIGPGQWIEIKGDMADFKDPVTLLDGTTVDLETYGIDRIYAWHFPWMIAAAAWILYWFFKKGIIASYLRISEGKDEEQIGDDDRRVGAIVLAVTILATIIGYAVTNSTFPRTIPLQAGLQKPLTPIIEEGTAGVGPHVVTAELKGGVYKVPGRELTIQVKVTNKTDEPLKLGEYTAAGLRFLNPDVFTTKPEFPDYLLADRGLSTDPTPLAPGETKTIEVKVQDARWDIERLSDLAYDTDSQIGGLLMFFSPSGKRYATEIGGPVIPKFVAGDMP
Sequence of particulate P(40) fraction of Methylosinus sp. (CRL-15, NRRL-B-11,202) (Q50541 1-252): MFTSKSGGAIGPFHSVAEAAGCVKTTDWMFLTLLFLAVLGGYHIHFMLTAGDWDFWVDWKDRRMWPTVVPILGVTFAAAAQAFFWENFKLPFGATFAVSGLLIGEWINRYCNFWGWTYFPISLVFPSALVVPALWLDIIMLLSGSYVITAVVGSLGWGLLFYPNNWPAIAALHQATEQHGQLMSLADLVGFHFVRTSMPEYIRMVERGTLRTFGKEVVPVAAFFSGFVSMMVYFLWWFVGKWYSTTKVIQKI
Sequence of particulate P(40) fraction of Methylosinus sp. (CRL-15, NRRL-B-11,202) (Q9KX51 1-256): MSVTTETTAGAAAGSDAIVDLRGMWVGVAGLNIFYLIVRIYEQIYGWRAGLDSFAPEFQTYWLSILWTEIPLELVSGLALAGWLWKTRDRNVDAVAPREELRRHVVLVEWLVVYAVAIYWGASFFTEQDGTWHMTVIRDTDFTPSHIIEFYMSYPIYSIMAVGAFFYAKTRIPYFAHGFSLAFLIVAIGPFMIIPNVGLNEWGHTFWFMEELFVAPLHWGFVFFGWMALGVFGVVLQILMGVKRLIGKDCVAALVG

Row | SMILES | Conversion Rates, n-alkane to methyl ketone [1] [μmoles/hr/mg protein] | Conversion Rates, n-alkane to methyl ketone [2] [μmoles/hr/mg protein] | Conversion Rates, n-alkane to methyl ketone [3] [μmoles/hr/mg protein] | Conversion Rates, n-alkane to methyl ketone [4] [μmoles/hr/mg protein] | Conversion Rates, n-alkane to methyl ketone [5] [μmoles/hr/mg protein] | Conversion Rates, n-alkane to methyl ketone [6] [μmoles/hr/mg protein] | Conversion Rates, n-alkane to methyl ketone [7] [μmoles/hr/mg protein] | Conversion Rates, n-alkane to methyl ketone [8] [μmoles/hr/mg protein] | Conversion Rate, n-alkane to secondary alcohol [9] [μmoles/hr/^5 mg. protein] | Conversion Rate, n-alkane to secondary alcohol [10] [μmoles/hr/^5 mg. protein] | Conversion Rate, n-alkane to secondary alcohol [11] [μmoles/hr/^5 mg. protein] | Conversion Rate, n-alkane to secondary alcohol [12] [μmoles/hr/^5 mg. protein] | Conversion Rate, n-alkane to secondary alcohol [13] [μmoles/hr/^5 mg. protein] | Conversion Rate, n-alkane to secondary alcohol [14] [μmoles/hr/^5 mg. protein] | Conversion Rate, n-alkane to secondary alcohol [15] | Conversion Rate, n-alkane to secondary alcohol [16] | Conversion Rate, n-alkane to secondary alcohol [17] | Conversion Rate, n-alkane to secondary alcohol [18] | other results
1 | CCCC [n-Butane, n-butane] | 1.1 | 2.0 | 1.0 | 0.60 | 0.30 | 0.58 | 1.2 | 0.52 | 0.09 | 0.80 | 1.0 | 1.2 | 1.2 | 1.5 | 0.61 μmoles/hr/2.0mg. of protein | 0.92 μmoles/hr/2.0mg. of protein | 0.89 μmoles/hr/2.0mg. of protein | 0.79 μmoles/hr/2.0mg. of protein | Conversion Rate to product 1-Butanol [19]: 0.3 μmoles/hr./mg./protein; Conversion Rate to product 2-Butanol [19]: 0.4 μmoles/hr./mg./protein; Conversion Rate to product 2-Butanone [19]: 0.1 μmoles/hr./mg./protein; Conversion Rate to product n-butanol [19]: 0.1 μmoles/hr./mg./protein; Conversion Rate to product 1-Butanol [20]: 0.4 μmoles/hr./mg./protein; Conversion Rate to product 2-Butanol [20]: 0.5 μmoles/hr./mg./protein; Conversion Rate to product 2-Butanone [20]: 0.2 μmoles/hr./mg./protein; Conversion Rate to product n-butanol [20]: 0.2 μmoles/hr./mg./protein
2 | CCCCC [n-Pentane, n-pentane] | 0.63 | 0.58 | 0.51 | – | 0.28 | – | 0.72 | 0.42 | – | 0.01 | 0.032 | – | – | 0.06 | – | – | – | – | –
3 | CCC [n-Propane, n-propane] | 1.6 | 2.8 | 1.8 | 2.7 | 2.5 | 2.1 | 1.5 | 1.2 | 0.20 | 1.4 | 1.1 | 1.6 | 2.1 | 2.5 | 1.0 μmoles/hr/2.0mg. of protein | 1.2 μmoles/hr/2.0mg. of protein | 1.5 μmoles/hr/2.0mg. of protein | 1.32 μmoles/hr/2.0mg. of protein | Conversion Rate to product 1-Propanol [19]: 0.4 μmoles/hr./mg./protein; Conversion Rate to product 2-Propanol [19]: 0.6 μmoles/hr./mg./protein; Conversion Rate to product Acetone [19]: 0.2 μmoles/hr./mg./protein; Conversion Rate to product Propanol [19]: 0.1 μmoles/hr./mg./protein; Conversion Rate to product 1-Propanol [20]: 0.5 μmoles/hr./mg./protein; Conversion Rate to product 2-Propanol [20]: 0.7 μmoles/hr./mg./protein; Conversion Rate to product Acetone [20]: 0.3 μmoles/hr./mg./protein; Conversion Rate to product Propanol [20]: 0.2 μmoles/hr./mg./protein
